Experimental data published in US10421761B2, “Compounds for kinase modulation, and indications therefor” (Plexxikon Inc., priority 2013, dated 2019).
Where two headings read alike, the source gives them in different places.

What was measured:
B9 (HRAS Q61L) cell line = assay: B9 P-ERK cell activation assay (AlphaScreen); format: cell-based, mouse; conditions: Mus musculus, P-ERK cell activation, B9, read-out: Cell activity (EC50 μM) B9_pERK
Description: (§1) B9 is a squamous cell carcinoma cell line expressing activated HRAS that was isolated from a DMBA/TPA-induced mouse model of skin carcinogenesis (Stoler, et al. The Journal of Cell Biology, 1993, 122(5), 1103-17). IPC-298 is a human melanoma cell line that expresses activated NRAS (Aubert, et al. International Journal of Cancer, 1993, 54(5), 784-92). To determine whether compounds induce phosphorylated ERK and MEK, cells are plated in a 96-well dish and treated with an 8-point titration of compound for one hour at 37° C. The media is then removed and the cells are incubated with lysis buffer containing protease and phosphatase inhibitors. Phosphorylated ERK and MEK in the resulting lysates is detected using AlphaScreen™ technology. To detect phosphorylated ERK, cell lysates are incubated with streptavidin-coated donor beads, anti-mouse IgG acceptor beads, a biotinylated anti-ERK1/2 rabbit antibody, and a mouse antibody that recognizes ERK1/2 only when it is phosphorylated on Thr202 and Tyr204. The biotinylated ERK1/2 antibody will bind to both the streptavidin-coated donor beads and to ERK1/2 (regardless of its phosphorylation state), and the phospho-ERK1/2 antibody will bind to the acceptor beads and to ERK1/2 that is phosphorylated at Thr202/Tyr204. Excitation of the beads with laser light at 680 nm produces singlet oxygen, which is rapidly quenched unless the beads are in close proximity. When ERK is phosphorylated, both antibodies can bind the same protein, bringing the donor and acceptor beads into close proximity, producing a signal that can be measured at 580 nm. MEK phosphorylation is detected using a similar approach, only with antibodies directed against total MEK1/2 and MEK1/2 that is phosphorylated at Ser217 and Ser221.
(§2) Phospho-ERK AlphaScreen® assay. To determine the effects of compound treatment upon phosphorylation of ERK1/2, cells were plated in a 96-well dish and treated with an 8-point titration of compound for one hour at 37° C. before lysis. To detect pERK, cell lysates were incubated with streptavidin-coated AlphaScreen® donor beads, anti-mouse IgG AlphaScreen® acceptor beads, a biotinylated anti-ERK1/2 rabbit antibody, and a mouse antibody that recognizes ERK1/2 only when it is phosphorylated on Thr202 and Tyr204. The biotinylated ERK1/2 antibody binds to both the streptavidin-coated AlphaScreen® donor beads and to ERK1/2 (regardless of its phosphorylation state), and the phospho-ERK1/2 antibody binds to the acceptor beads and to ERK1/2 that is phosphorylated at Thr202/Tyr204. An increase in ERK1/2 phosphorylation at Thr202/Tyr204 brings the donor and acceptor AlphaScreen® beads into close proximity, generating a signal that can be quantified on an EnVision reader (Perkin Elmer).

[1] = tested on: A375 (BRAF V600E) cell line; assay: A375 P-ERK inhibition assay (AlphaScreen); format: cell-based, human; conditions: Homo sapiens, A-375; A375_P-ERK
Description: as §2

[2] = tested on: IPC-298 (NRAS Q61L) cell line; assay: IPC-298 P-ERK cell activation assay (AlphaScreen); format: cell-based, human; conditions: Homo sapiens, P-ERK cell activation, IPC-298, read-out: Cell activity (EC50 μM) IPC-298_P-ERK
Description: as §1, §2

BRAF V600E = target: T1, BRAF V600E (Homo sapiens, UniProt P15056, V600E); assay: BRAF V600E biochemical kinase activity assay (AlphaScreen, biotin-MEK1 substrate); conditions: BRAF V600E biochemical inhibitory activity
T1 construct: purchased Upstate Biotechnology
T1 sequence (P15056 whole entry V600E): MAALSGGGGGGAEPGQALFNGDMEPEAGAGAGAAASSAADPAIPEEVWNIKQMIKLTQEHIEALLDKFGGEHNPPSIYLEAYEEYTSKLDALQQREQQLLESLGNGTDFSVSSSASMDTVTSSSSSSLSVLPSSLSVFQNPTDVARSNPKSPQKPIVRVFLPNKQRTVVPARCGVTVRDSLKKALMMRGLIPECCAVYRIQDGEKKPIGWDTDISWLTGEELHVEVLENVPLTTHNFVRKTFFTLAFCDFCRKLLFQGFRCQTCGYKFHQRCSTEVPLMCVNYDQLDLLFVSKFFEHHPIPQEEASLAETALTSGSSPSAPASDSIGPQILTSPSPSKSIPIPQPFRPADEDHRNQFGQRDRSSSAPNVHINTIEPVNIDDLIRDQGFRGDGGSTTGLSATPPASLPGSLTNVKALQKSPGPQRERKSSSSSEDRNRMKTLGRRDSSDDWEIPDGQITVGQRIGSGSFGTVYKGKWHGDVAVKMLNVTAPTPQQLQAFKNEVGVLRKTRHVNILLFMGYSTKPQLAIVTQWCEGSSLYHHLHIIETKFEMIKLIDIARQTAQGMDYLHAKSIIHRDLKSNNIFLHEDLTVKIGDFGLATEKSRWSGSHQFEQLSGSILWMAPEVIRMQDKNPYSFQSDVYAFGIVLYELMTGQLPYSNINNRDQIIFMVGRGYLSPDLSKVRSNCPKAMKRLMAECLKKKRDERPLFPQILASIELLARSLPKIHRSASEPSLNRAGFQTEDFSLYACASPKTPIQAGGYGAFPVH
Description: Compounds to be tested are diluted in dimethyl sulfoxide to a concentration of 0.1 mM. These are serially diluted 15 μL into 30 μL of dimethyl sulfoxide seven times in 96 well plates for a total of 8 dilution points, and for each dilution point 1 μL is added to a well of an assay plate. […] The reaction is started with addition of 10 μL of 200 μM ATP (i.e. final 100 μM ATP). After incubation of the kinase reaction for 45 minutes at room temperature, 5 μL/well of Stop Solution is added (25 mM Hepes pH 7.5, 100 mM EDTA, 0.01% BSA with donor beads (Streptavidin coated beads, Perkin Elmer), acceptor beads (Protein A coated, Perkin Elmer), and anti-phosphor MEK1/2 antibody (CellSignal), each at final concentration 10 μg/mL). The plates are incubated for 3 hours at room temperature and read on Envision reader (Perkin Elmer). Phosphorylation of Mek1 results in binding of the anti-phosphor-MEK1/2antibody and association of the donor and acceptor beads such that signal correlates with kinase activity. The signal versus compound concentration is used to determine the IC50.
The in vitro RAF kinase activities were determined by measuring phosphorylation of a biotinylated substrate peptide as described previously (Tsai, J. et al. Proc Natl Acad Sci USA 105, 3041-3046 (2008)). Compounds of formula (I), e.g., compound A, was also tested against a panel of 287 kinases at concentrations of 1 μM in duplicate. Kinases inhibited by over 50% were followed up by IC50 determination. The 287 kinases represent all major branches of the kinome phylogenetic tree. The inhibition screen of 287 kinases was carried out under contract as complementary panels at Invitrogen (Life Technologies, Wis., USA) SelectScreen™ profiling service, DiscoverX (CA, USA) KINOMEScan™ service, and Reaction Biology Corporation (PA, USA) Kinase HotSpot℠ service.

Row | EC50 (B9 (HRAS Q61L) cell line; numeric bounds) | IC50 [1] | EC50 ([2]; numeric bounds) | IC50 (BRAF V600E) | EC50 (B9 (HRAS Q61L) cell line; class symbols) | EC50 ([2]; class symbols) | Structure (SMILES)
1 | > 10 µM | 0.0001 to 1 µM | > 10 µM | 0.0001 to 1 µM | – | – | O=C(c1c(F)ccc(NS(=O)(=O)N2CCCC2)c1F)c1c[nH]c2nccc(Cl)c12 [P-2025, N-[3-(4-chloro-1H-pyrrolo[2,3-b]pyridine-3-carbonyl)-2,4-difluoro-phenyl]pyrrolidine-1-sulfonamide]
2 | > 10 µM | > 10 µM | > 10 µM | 1 to 10 µM | – | – | CN(C)S(=O)(=O)Nc1ccc(F)c(C(=O)c2c[nH]c3ncncc23)c1F [P-2026, 5-[3-(dimethylsulfamoylamino)-2,6-difluoro-benzoyl]-7H-pyrrolo[2,3-d]pyrimidine]
3 | > 10 µM | 0.0001 to 1 µM | > 10 µM | 0.0001 to 1 µM | – | – | COCCNc1ncnc2[nH]cc(C(=O)c3cccc(NS(=O)(=O)N4CCCC4)c3F)c12 [P-2104, N-[2-fluoro-3-[4-(2-methoxyethylamino)-7H-pyrrolo[2,3-d]pyrimidine-5-carbonyl]phenyl]pyrrolidine-1-sulfonamide]
4 | > 10 µM | 0.0001 to 1 µM | > 10 µM | 0.0001 to 1 µM | – | – | CCN(C)S(=O)(=O)Nc1cccc(C(=O)c2c[nH]c3ncnc(NCC4CC4)c23)c1F [P-2064, 4-(cyclopropylmethylamino)-5-[3-[[ethyl(methyl)sulfamoyl]amino]-2-fluoro-benzoyl]-7H-pyrrolo[2,3-d]pyrimidine]
5 | > 10 µM | 0.0001 to 1 µM | > 10 µM | 0.0001 to 1 µM | – | – | O=C(c1cccc(NS(=O)(=O)N2CCCC2)c1F)c1c[nH]c2ncnc(NCC3CC3)c12 [P-2057, N-[3-[4-(cyclopropylmethylamino)-7H-pyrrolo[2,3-d]pyrimidine-5-carbonyl]-2-fluoro-phenyl]pyrrolidine-1-sulfonamide]
6 | > 10 µM | > 10 µM | > 10 µM | 0.0001 to 1 µM | – | – | N#Cc1ccnc2[nH]cc(C(=O)c3c(F)ccc(NS(=O)(=O)C4CCCCC4)c3F)c12 [P-2018, N-[3-(4-cyano-1H-pyrrolo[2,3-b]pyridine-3-carbonyl)-2,4-difluoro-phenyl]cyclohexanesulfonamide]
7 | > 10 µM | 0.0001 to 1 µM | > 10 µM | 0.0001 to 1 µM | – | – | O=C(c1cccc(NS(=O)(=O)N2CCCC2)c1F)c1c[nH]c2ncnc(NCC3CC(O)C3)c12 (stereo not drawn) [P-2098, N-[2-fluoro-3-[4-[(3-hydroxycyclobutyl)methylamino]-7H-pyrrolo[2,3-d]pyrimidine-5-carbonyl]phenyl]pyrrolidine-1-sulfonamide]
8 | – | 0.0001 to 1 µM | – | 0.0001 to 1 µM | 0.0001 to 1 µM | 0.0001 to 1 µM | COC(=O)N[C@@H](C)CNc1nccc(-c2nn(C(C)C)cc2-c2cc(Cl)cc(NS(=O)(=O)C3CCC3)c2F)n1 [P-2169, methyl N-[(1S)-2-[[4-[4-[5-chloro-3-(cyclobutylsulfonylamino)-2-fluoro-phenyl]-1-isopropyl-pyrazol-3-yl]pyrimidin-2-yl]amino]-1-methyl-ethyl]carbamate]
9 | > 10 µM | 0.0001 to 1 µM | > 1 µM | 0.0001 to 1 µM | – | – | CC(C)(C)c1nc(-c2cccc(NS(=O)(=O)N3CCCC3)c2F)c(-c2ncnc3[nH]cnc23)s1 [P-2125, N-[3-[2-tert-butyl-5-(9H-purin-6-yl)thiazol-4-yl]-2-fluoro-phenyl]pyrrolidine-1-sulfonamide]
10 | > 10 µM | 0.0001 to 1 µM | > 10 µM | 0.0001 to 1 µM | – | – | O=C(c1c(F)ccc(NS(=O)(=O)C2CCC2)c1F)c1c[nH]c2nccc(Cl)c12 [Compound P-2008, N-[3-(4-chloro-1H-pyrrolo[2,3-b]pyridine-3-carbonyl)-2,4-difluoro-phenyl]cyclobutanesulfonamide]
11 | > 10 µM | 1 to 10 µM | > 10 µM | 1 to 10 µM | – | – | CC(C)Nc1ncnc2[nH]cc(C(=O)c3c(F)ccc(NS(=O)(=O)C4CCC4)c3F)c12 [P-2043, N-[2,4-difluoro-3-[4-(isopropylamino)-7H-pyrrolo[2,3-d]pyrimidine-5-carbonyl]phenyl]cyclobutanesulfonamide]
12 | > 10 µM | 0.0001 to 1 µM | > 10 µM | 0.0001 to 1 µM | – | – | CCN(C)S(=O)(=O)Nc1ccc(F)c(C(=O)c2c[nH]c3ncnc(NCCOC)c23)c1F [P-2100, 5-[3-[[ethyl(methyl)sulfamoyl]amino]-2,6-difluoro-benzoyl]-4-(2-methoxyethylamino)-7H-pyrrolo[2,3-d]pyrimidine]
13 | > 10 µM | 0.0001 to 1 µM | > 10 µM | 0.0001 to 1 µM | – | – | CCN(C)S(=O)(=O)Nc1ccc(F)c(C(=O)c2c[nH]c3ncnc(NC4CCOCC4)c23)c1F [P-2119, 5-[3-[[ethyl(methyl)sulfamoyl]amino]-2,6-difluoro-benzoyl]-4-(tetrahydropyran-4-ylamino)-7H-pyrrolo[2,3-d]pyrimidine]
14 | > 10 µM | > 10 µM | > 10 µM | 0.0001 to 1 µM | – | – | CC(=O)Nc1ccc(NC(=O)c2c(F)ccc(NS(=O)(=O)N3CCCCC3)c2F)cn1 [P-2033, N-(6-acetamido-3-pyridyl)-2,6-difluoro-3-(1-piperidylsulfonylamino)benzamide]
15 | > 10 µM | 0.0001 to 1 µM | > 10 µM | 0.0001 to 1 µM | – | – | COc1ccnc2[nH]cc(C(=O)c3c(F)ccc(NS(=O)(=O)N(C)C)c3F)c12 [Compound P-2002, 3-[3-(dimethylsulfamoylamino)-2,6-difluoro-benzoyl]-4-methoxy-1H-pyrrolo[2,3-b]pyridine]
16 | > 10 µM | 1 to 10 µM | > 10 µM | 0.0001 to 1 µM | – | – | O=C(O)CNc1ncnc2[nH]cc(C(=O)c3cccc(NS(=O)(=O)N4CCCC4)c3F)c12 [P-2109, 2-[[5-[2-fluoro-3-(pyrrolidin-1-ylsulfonylamino)benzoyl]-7H-pyrrolo[2,3-d]pyrimidin-4-yl]amino]acetic acid]
17 | > 10 µM | 0.0001 to 1 µM | > 10 µM | 0.0001 to 1 µM | – | – | O=C(c1c(F)ccc(NS(=O)(=O)C2CCOCC2)c1F)c1c[nH]c2ncnc(NCC3CC3)c12 [P-2058, N-[3-[4-(cyclopropylmethylamino)-7H-pyrrolo[2,3-d]pyrimidine-5-carbonyl]-2,4-difluoro-phenyl]tetrahydropyran-4-sulfonamide]
18 | > 10 µM | 1 to 10 µM | > 10 µM | 0.0001 to 1 µM | – | – | NCCNc1ncnc2[nH]cc(C(=O)c3cccc(NS(=O)(=O)N4CCCC4)c3F)c12 [P-2102, N-[3-[4-(2-aminoethylamino)-7H-pyrrolo[2,3-d]pyrimidine-5-carbonyl]-2-fluoro-phenyl]pyrrolidine-1-sulfonamide]
